Results as given in ChEMBL document CHEMBL1151792, “Development of novel tail-modified anandamide analogs” (Bioorg Med Chem Lett, 2008).

Key:
Cannabinoid receptor 1 = Cannabinoid receptor 1 (Rattus norvegicus, UniProt P20272); assay type: cell membranes, Brain, Membrane
Description: Displacement of [3H]CP-55940 from cannabinoid CB1 receptor in rat brain membrane in presence of phenylmethanesulfonyl fluoride

Cannabinoid receptor 2 = Cannabinoid receptor 2 (Mus musculus, UniProt P47936); assay: Displacement of [3H]CP-55940 from cannabinoid CB2 receptor in mouse spleen membrane; assay type: cell membranes
Sequence of Cannabinoid receptor 2 (P47936 whole entry): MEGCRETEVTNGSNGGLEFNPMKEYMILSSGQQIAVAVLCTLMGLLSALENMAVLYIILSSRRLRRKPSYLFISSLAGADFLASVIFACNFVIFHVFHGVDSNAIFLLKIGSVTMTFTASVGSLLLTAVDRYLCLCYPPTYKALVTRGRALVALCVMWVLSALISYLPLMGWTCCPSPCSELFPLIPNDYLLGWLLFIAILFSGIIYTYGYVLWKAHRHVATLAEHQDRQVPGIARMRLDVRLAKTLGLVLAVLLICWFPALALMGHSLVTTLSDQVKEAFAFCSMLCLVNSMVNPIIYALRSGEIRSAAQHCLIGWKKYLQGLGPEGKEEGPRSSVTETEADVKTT

Sequence of Cannabinoid receptor 1 (P20272 whole entry): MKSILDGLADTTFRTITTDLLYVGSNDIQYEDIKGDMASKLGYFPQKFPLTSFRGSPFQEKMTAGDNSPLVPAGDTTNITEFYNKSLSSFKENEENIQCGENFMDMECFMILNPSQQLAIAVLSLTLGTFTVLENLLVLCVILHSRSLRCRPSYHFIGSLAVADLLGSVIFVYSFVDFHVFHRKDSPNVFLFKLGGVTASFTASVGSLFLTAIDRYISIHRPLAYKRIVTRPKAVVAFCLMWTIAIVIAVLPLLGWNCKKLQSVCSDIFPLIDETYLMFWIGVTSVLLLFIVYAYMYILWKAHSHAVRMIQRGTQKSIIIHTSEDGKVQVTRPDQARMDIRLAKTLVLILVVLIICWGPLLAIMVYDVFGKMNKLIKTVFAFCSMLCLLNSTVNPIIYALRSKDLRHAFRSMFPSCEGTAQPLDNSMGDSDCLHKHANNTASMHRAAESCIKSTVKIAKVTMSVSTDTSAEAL

Row | SMILES | Ki (Cannabinoid receptor 1) | Ki (Cannabinoid receptor 2)
1 | C[C@H](CO)NC(=O)CCC/C=C\C/C=C\C/C=C\C/C=C\CCCCc1ccccc1 | 13.3 nM | 1120 nM
2 | C[C@H](CO)NC(=O)CCC/C=C\C/C=C\C/C=C\C/C=C\CCCCCc1ccccc1 | 76.6 nM | 241 nM
3 | C[C@H](CO)NC(=O)CCC/C=C\C/C=C\C/C=C\C/C=C\CCCCc1ccc(Br)cc1 | 8.9 nM | 250 nM
4 | C[C@H](CO)NC(=O)CCC/C=C\C/C=C\C/C=C\C/C=C\CCCCc1cccc(Br)c1 | 95.3 nM | 1050 nM
5 | C[C@H](CO)NC(=O)CCC/C=C\C/C=C\C/C=C\C/C=C\CCCCc1cccc2ccccc12 | 678 nM | 4000 nM
6 | C[C@H](CO)NC(=O)CCC/C=C\C/C=C\C/C=C\C/C=C\CCc1ccccc1 | 241 nM | 335 nM
7 | C[C@H](CO)NC(=O)CCC/C=C\C/C=C\C/C=C\C/C=C\CCCCc1ccccc1Br | 170 nM | –
8 | C[C@H](CO)NC(=O)CCC/C=C\C/C=C\C/C=C\C/C=C\Cc1ccccc1 | 349 nM | 826 nM
9 | C[C@H](CO)NC(=O)CCC/C=C\C/C=C\C/C=C\C/C=C\CCCc1ccccc1 | 69.2 nM | 534 nM
10 | C[C@H](CO)NC(=O)CCC/C=C\C/C=C\C/C=C\C/C=C\CCCCCc1ccco1 | 561 nM | 3260 nM
11 | C[C@H](CO)NC(=O)CCC/C=C\C/C=C\C/C=C\C/C=C\CCCCc1ccoc1 | 12 nM | 1030 nM
12 | C[C@H](CO)NC(=O)CCC/C=C\C/C=C\C/C=C\C/C=C\CCCCc1cccc(C(F)(F)F)c1 | 284 nM | 2040 nM
13 | C[C@H](CO)NC(=O)CCC/C=C\C/C=C\C/C=C\C/C=C\CCCCCc1ccoc1 | 170 nM | 869 nM
14 | C[C@H](CO)NC(=O)CCC/C=C\C/C=C\C/C=C\C/C=C\CCCCc1cccc(Cl)c1 | 89.4 nM | 605 nM
15 | C[C@H](CO)NC(=O)CCC/C=C\C/C=C\C/C=C\C/C=C\CCCCc1cccc(I)c1 | 533 nM | 1560 nM
16 | C[C@H](CO)NC(=O)CCC/C=C\C/C=C\C/C=C\C/C=C\CCCCc1ccco1 | 325 nM | 750 nM
17 | Cc1cccc(CCCC/C=C\C/C=C\C/C=C\C/C=C\CCCC(=O)N[C@H](C)CO)c1 | 344 nM | 840 nM
